{
  "source": "patent US20260294933A1",
  "about": "“USE OF COMPOUND IN PREVENTION OR TREATMENT OF RADIATION-INDUCED BRAIN INJURY” (GUANGZHOU CELLPROTEK PHARMACEUTICAL CO., LTD, priority 2023, published 2026)",
  "key": {"[1]": {"test_system": "GFAP positive astrocytes", "test": "GFAP immunofluorescence staining, activation of astrocytes in the thalamus of the lesion", "assay_type": "in vivo, C57BL/6 mice", "excerpt": "FIG. 3: YC-6 inhibited the activation of astrocytes after radiation-induced brain injury. Pannel A: GFAP immunofluorescence staining in the thalamus of the brain lesion, with a white ruler indicating […]. Pannel B: Counting GFAP positive cells in Pannel A, i.e., randomly selecting three fields of view in the brain slice injury lesion area and using Image J software to count GFAP positive cells in the selected fields as the number of GFAP positive cells per unit area, and taking the average value. **** represents P<0.0001, n=5.\n(§1) The coordinates of the irradiation center positioning point were: 2 mm behind the anterior fontanelle (AP), 2 mm left of the midline (L), and 2 mm below the skull dura mater (dorsal ventral DV).\n(§2) Immunofluorescence Staining of GFAP, CC1, and MAG Proteins in Brain Slices"}, "[2]": {"test_system": "gamma knife irradiation induced focal radiation-induced brain injury (brain lesions)", "test": "Brain lesion volume by MRI, gamma knife irradiation induced focal radiation-induced brain injury in C57BL/6 mice", "assay_type": "in vivo", "method": "as §1\nQuantitative Analysis of Brain Lesion Volume Using Magnetic Resonance imaging (MRI)\nPrior to detection, each mouse was injected with 200 μl of contrast agent solution at a concentration of approximately 48 mg/ml."}, "[3]": {"test_system": "MAG", "test": "MAG immunofluorescence intensity in the thalamus of the lesion", "assay_type": "in vivo, C57BL/6 mice", "excerpt": "(§3) Pannel A: Immunofluorescence staining of CC1 and MAG in the thalamus of the brain lesion, with a white ruler indicating […]. Pannel B: Counting CC1 positive cells in Pannel A, i.e., randomly selecting three fields of view in the brain slice injury lesion area and using Image J software to count CC1 positive cells in the selected fields as the number of CC1 positive cells per unit area, and taking the average value. Pannel C: Statistical analysis of MAG immunofluorescence intensity in Pannel A, i.e., randomly selecting three fields of view in the brain slice injury lesion area and using Image J software to quantify the fluorescence signal intensity of MAG in the selected fields as the fluorescence intensity of MAG per unit pixel area, and taking the average value. **** represents P<0.0001, n=5.\nas §1, §2"}, "[4]": {"test_system": "CC1 positive oligodendrocytes", "test": "CC1 immunofluorescence staining, mature oligodendrocytes in the thalamus of the lesion", "assay_type": "in vivo, C57BL/6 mice", "excerpt": "as §3, §1, §2"}, "[5]": {"test_system": "radiation-induced brain injury", "conditions": "patients treated with bevacizumab; cited from earlier work"}, "[6]": {"test_system": "blood-brain barrier and microvessels", "conditions": "animals; cited from earlier work"}, "[7]": {"conditions": "YC-6 administration for 8 weeks"}},
  "note": "“Also recorded” adds a separate entry of the source.",
  "data": [
    {"molecule": "C[C@@]12CCCC1C1C[C@@H](O)[C@@]3(O)C[C@@H](O)CC[C@]3(C)C1CC2", "note": "(stereo partly drawn) [YC-6, 5α-androst-3β,5,6β-triol]", "values": [
      {"measurement": "Number of astrocytes (GFAP positive)", "setting": "[1]; 60 mg/kg/d for 8 weeks, 8 weeks after gamma knife radiation, Mean ± SEM, n=5, P < 0.0001 vs RBI + Saline (558.20 ± 10.07), Control + Saline 57.80 ± 2.69", "result": "357.00 ± 10.61", "unit": "Astrocytes/mm^2"},
      {"measurement": "activation of astrocytes (in words)", "setting": "[1]; [7]", "result": "significantly inhibited the activation of astrocytes"},
      {"measurement": "volume of brain lesions (in words)", "setting": "[2]; 60 mg/kg/d for 2 weeks, followed by discontinuation until week 8", "result": "significantly reduced the volume of brain lesions; also recorded: significantly reducing lesion volume"},
      {"measurement": "volume of brain lesions (in words)", "setting": "[2]; full 8-week administration, compared to 2-week administration", "result": "showed a trend towards further reducing the volume of brain lesions; also recorded: showed a better trend in reducing lesion volume compared to short-term administration"},
      {"measurement": "MAG fluorescence signal intensity", "setting": "[3]; 60 mg/kg/d for 8 weeks, 8 weeks after gamma knife radiation, Mean ± SEM, n=5, P < 0.0001 vs RBI + Saline (0.31 ± 0.018), Control + Saline 1.04 ± 0.047", "result": "0.44 ± 0.018"},
      {"measurement": "MAG level (in words)", "setting": "[3]; [7]", "result": "restored MAG level"},
      {"measurement": "Number of mature oligodendrocytes (CC1 positive)", "setting": "[4]; 60 mg/kg/d for 8 weeks, 8 weeks after gamma knife radiation, Mean ± SEM, n=5, P < 0.0001 vs RBI + Saline (200.60 ± 21.47), Control + Saline 1608.00 ± 47.92", "result": "506.40 ± 30.48", "unit": "Oligodendrocytes/mm^2"},
      {"measurement": "reduction of oligodendrocytes (in words)", "setting": "[4]; [7]", "result": "significantly inhibited the reduction of oligodendrocytes"}
    ]},
    {"molecule": "bevacizumab: bevacizumab, used in a randomized double-blind placebo-controlled study in 2011", "values": [
      {"measurement": "neurological function", "setting": "[5]", "result": "significant improvement in neurological function"},
      {"measurement": "reduction in brain injury lesions", "setting": "[5]", "result": "varying degrees of reduction in brain injury lesions"}
    ]},
    {"molecule": "mouse nerve growth factor for injection: mouse nerve growth factor for injection (protein, UniProt P01139 122-241, looked up) Beta-nerve growth factor: SSTHPVFHMGEFSVCDSVSVWVGDKTTATDIKGKEVTVLAEVNINNSVFRQYFFETKCRASNPVESGCRGIDSKHWNSYCTTTHTFVKALTTDEKQAAWRFIRIDTACVCVLSRKATRRG", "values": [
      {"measurement": "damage to the blood-brain barrier and repair of microvessels", "setting": "[6]", "result": "can alleviate damage to the blood-brain barrier and repair microvessels in animals"}
    ]}
  ]
}
